Laboratory results: publication PMC4463418, “The Effect of Hydrophobic Monoamines on Acid-Sensing Ion Channels ASIC1B” (Acta Naturae, 2015)
Values belong to the molecule of their own block, whether it stands above or below them.

Columns and labels:
Type in all cases: cell-based
ASIC1b [1] = biological target: T1, ASIC1b (Rattus norvegicus, UniProt P55926); experiment: whole-cell patch clamp, CHO cells, activation at pH […]
T1 construct: gene Asic1; homomeric rASIC1b (splice variant) expressed in CHO cells
T1 sequence (P55926 186-526 limits assumed): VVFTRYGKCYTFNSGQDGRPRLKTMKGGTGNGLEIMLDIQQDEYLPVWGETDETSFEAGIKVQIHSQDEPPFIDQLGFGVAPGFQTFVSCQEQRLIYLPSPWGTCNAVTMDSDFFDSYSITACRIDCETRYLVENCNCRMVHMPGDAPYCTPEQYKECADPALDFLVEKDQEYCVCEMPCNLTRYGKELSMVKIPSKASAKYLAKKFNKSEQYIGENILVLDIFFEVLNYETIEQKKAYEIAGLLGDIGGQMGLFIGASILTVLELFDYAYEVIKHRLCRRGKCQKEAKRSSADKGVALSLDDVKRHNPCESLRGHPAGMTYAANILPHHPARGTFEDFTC

ASIC1b [2] = biological target: T1, ASIC1b; experiment: whole-cell patch clamp, CHO cells, block at […], pH […]
ASIC1b [3] = biological target: T1, ASIC1b; experiment: whole-cell patch clamp, CHO cells, inhibition at […]

SMILES: Nc1c2ccccc2nc2ccccc12 [9AA, 9-aminoacridine]
IC50 (ASIC1b [1]): 440 ± 20 µM

SMILES: N=C(N)NC(=O)c1nc(Cl)c(N)nc1N [amiloride]
inhibition at 30 µM (ASIC1b [2]): 53 ± 7%

inhibition at 1000 µM (ASIC1b [3]): 44 ± 16%
SMILES: CC12CC3CC(C)(C1)CC(N)(C3)C2 [memantine]
